Results: patent publication US9695155B2, “Herbicidal substituted pyrimidinyloxy benzene compounds” (E. I. DU PONT DE NEMOURS AND COMPANY, priority 2013, dated 2017)

Columns and labels:
barnyardgrass [1] = assay: Test A preemergence; assay type: in vivo, Echinochloa crus-galli
Procedure, shortened: (§1)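 Scoring: eye-based comparison with untreated controls, 0 for no effect through 100 for complete control, at about day 10. Treatments: directed soil spray preemergence; foliar spray postemergence on 2–10 cm plants at the one- to two-leaf stage. Medium: loam soil with sand.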

giant foxtail = assay: Test A preemergence; assay type: in vivo, Setaria faberii
Procedure, shortened: as §1

blackgrass = assay: Test C preemergence; assay type: in vivo, Alopecurus myosuroides; settings: for Blackgrass plant response rating: preemergence
Procedure, shortened: (§2)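 Visual ratings on a 0–100 scale (100 = complete control) were made versus untreated controls after 13–15 greenhouse days. Chemicals in a surfactant-containing non-phytotoxic solvent were applied either preemergence to seeds in loam–sand soil or postemergence to 1- to 4-leaf plants 2–18 cm tall.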

corn = assay: Test C preemergence; assay type: in vivo, Zea mays; settings: for Corn plant response rating: preemergence
Procedure, shortened: as §2

morningglory = assay: Test C preemergence; assay type: in vivo, Ipomoea coccinea; settings: for Morningglory plant response rating: preemergence
Procedure, shortened: as §2

ragweed = assay: Test C preemergence; assay type: in vivo, Ambrosia elatior; settings: for Ragweed plant response rating: preemergence
Procedure, shortened: as §2

soybean = assay: Test C preemergence; assay type: in vivo, Glycine max
Procedure, shortened: as §2

barnyardgrass [2] = assay: Test C preemergence; assay type: in vivo, Echinochloa crus-galli; settings: for Barnyardgrass plant response rating: preemergence
Text: (§3) Seeds of plant species selected from blackgrass (Alopecurus myosuroides), Italian ryegrass (Lolium multiflorum), wheat, winter (winter wheat, Triticum aestivum), galium (catchweed bedstraw, Galium aparine), corn (Zea mays), large (Lg) crabgrass (Digitaria sanguinalis), giant foxtail (Setaria faberii), johnsongrass (Sorghum halepense), lambsquarters (Chenopodium album), morningglory (Ipomoea coccinea), yellow nutsedge (Cyperus esculentus), pigweed (Amaranthus retroflexus), ragweed (common ragweed, Ambrosia elatior), soybean (Glycine max), barnyardgrass (Echinochloa crus-galli), oilseed rape (Brassica napus), waterhemp (common waterhemp, Amaranthus rudis), kochia (Kochia scoparia), wild oat (Avena fatua), surinam grass (Brachiaria decumbens), foxtail, green (green foxtail, Setaria viridis), goosegrass (Eleusine indica), bromegrass, downy (downy bromegrass, Bromus tectorum), nightshade (eastern black nightshade, Solanum ptycanthum), cocklebur (common cocklebur, Xanthium strumarium), cupgrass, woolly (woolly cupgrass, Eriochloa villosa), bermudagrass (Cynodon dactylon), sunflower, (common oilseed sunflower, Helianthus annuus), Russian thistle (Salsola kali), and velvetleaf (Abutilon theophrasti) were planted into a blend of loam soil and sand and treated preemergence with test chemicals formulated in a non-phytotoxic solvent mixture which included a surfactant.
(§4) At the same time, plants selected from these crop and weed species and also barley, winter (winter barley, Hordeum vulgare), windgrass (Apera spica-venti), chickweed (common chickweed, Stellaria media), deadnettle (henbit deadnettle, Lamium amplexicaule), and canarygrass (littleseed canarygrass, Phalaris minor) were planted in pots containing Redi-Earth® planting medium (Scotts Company, 14111 Scottslawn Road, Marysville, Ohio 43041) comprising spaghnum peat moss, vermiculite, wetting agent and starter nutrients and treated with postemergence applications of test chemicals formulated in the same manner. Plants ranged in height from 2 to 18 cm (1- to 4-leaf stage) for postemergence treatments. Treated plants and controls were maintained in a greenhouse for 13 to 15 days, after which time all species were compared to controls and visually evaluated. Plant response ratings, summarized in Table C, are based on a scale of 0 to 100 where 0 is no effect and 100 is complete control. A dash (-) response means no test result.

oilseed rape = assay: Test C preemergence; assay type: in vivo, Brassica napus; settings: for Oilseed Rape plant response rating: preemergence
Text: as §3, §4

waterhemp = assay: Test C preemergence; assay type: in vivo, Amaranthus rudis; settings: for Waterhemp plant response rating: preemergence
Text: as §3, §4

[3] = 31 g ai/ha, 0 to 100 scale where 0 is no effect and 100 is complete control, visual, approximately 10 days
[4] = 16 g ai/ha, scale 0 to 100 (0 no effect, 100 complete control)
[5] = 125 g ai/ha, scale 0 (no effect) to 100 (complete control)
[6] = Preemergence, 62 g ai/ha, scale 0 to 100, 0 no effect, 100 complete control

For `FCc1cccc(Oc2ncc(Cl)cn2)c1-n1cc(Cl)cn1` [Compound 250], the “Plant response rating, Barnyardgrass” value (barnyardgrass [1]; [3]) was 10, the “Barnyardgrass plant response rating (0 to 100 scale, 0 is no effect, 100 is complete control)” value (barnyardgrass [1]; 125 g ai/ha) was 90 and the “Plant response rating, Foxtail, Giant” value (giant foxtail; [3]) was 30. The “Foxtail, Giant plant response rating (0 to 100 scale)” value (giant foxtail; 125 g ai/ha) was 100, the “Blackgrass plant response rating” value (blackgrass; [4]) was 0 and the “Blackgrass plant response rating” value (blackgrass; [5]) was 90. The “Plant response rating, Blackgrass” value (blackgrass; [6]) was 70, the “Corn plant response rating” value (corn; [4]) was 0 and the “Corn plant response rating” value (corn; [5]) was 10. The “Plant response rating, Corn” value (corn; [6]) was 0, the “Morningglory plant response rating” value (morningglory; [4]) was 0 and the “Morningglory plant response rating” value (morningglory; [5]) was 50. For the same molecule, the “Plant response rating, Morningglory” value (morningglory; [6]) was 50, the “Ragweed plant response rating” value (ragweed; [4]) was 15 and the “Ragweed plant response rating” value (ragweed; [5]) was 75. For the same molecule, the “Plant response rating, Ragweed” value (ragweed; [6]) was 40, the “Soybean plant response rating” value (soybean; 125 g ai/ha, preemergence, scale 0 (no effect) to 100 (complete control)) was 90 and the “Plant response rating, Soybean” value (soybean; [6]) was 65. The “Barnyardgrass plant response rating” value (barnyardgrass [2]; [4]) was 5, the “Barnyardgrass plant response rating” value (barnyardgrass [2]; [5]) was 100 and the “Plant response rating, Barnyardgrass” value (barnyardgrass [2]; [6]) was 50. The “Oilseed Rape plant response rating” value (oilseed rape; [4]) was 100, the “Oilseed Rape plant response rating” value (oilseed rape; [5]) was 100 and the “Plant response rating, Oilseed Rape” value (oilseed rape; [6]) was 100. The “Waterhemp plant response rating” value (waterhemp; [4]) was 85, the “Waterhemp plant response rating” value (waterhemp; [5]) was 100 and the “Plant response rating, Waterhemp” value (waterhemp; [6]) was 100.
